# How the values were obtained:
# [1] = tested on: spinal cord crush injury rats; assay: Histological evaluation in spinal cord crush injury model; assay type: in vivo, Lewis rats; settings: 8 weeks after injury, vs vehicle; for reactive astrocyte area (GFAP positive area): FIG. 6
# Description: Crush injuries were created in the fifth cervical cord (C5) of Lewis rats (female, 8 to 14 weeks old, n=14 to 18/group) under anesthesia by applying a pressure of 200 kdyn using an IH impactor. For seven consecutive days from the day of injury creation, 380 to 420 μL of the test compound dissolved in saline or DMSO, or vehicle was intraperitoneally administered. The daily doses were 20 mg/kg body weight of papaverine, 1 mg/kg body weight of mubritinib, and 1 mg/kg body weight of brexpiprazole. After the rats were kept for 8 weeks from injury creation, histological evaluation and sensory function evaluation for pathological conditions at the chronic stage of the spinal cord injury were performed. After perfusion and fixation of the rats in the same manner as in Example 3, the 2 cm long spinal cord centering the injury site was dissected. The dissected spinal cords were immersed in PBS containing 30% sucrose for overnight and then transected horizontally to prepare frozen sections having a thickness of 30 μm. After washing the sections with TBS, blocking was performed in a blocking buffer (TBS containing 5% normal horse serum and 0.25% Triton X-100) for 1 hour at room temperature. After washing with PBS, the sections were reacted with a primary antibody at 4° C. overnight. As the primary antibody, purified anti-Glial Fibrillary Acidic Protein (GFAP) Antibody (Biolegend) and Anti-NeuN Antibody, clone A60 (Millipore) were diluted with TBS containing 5% normal horse serum and 0.25% Triton X-100 at 1:1000 and at 1:500, respectively, and used. After washing with TBS, the sections were reacted with a secondary antibody at room temperature for 3 hours. As the secondary antibody, both Alexa Fluor 594 donkey anti-mouse IgG (Jackson ImmunoResearch) and Alexa Fluor 594 donkey anti-chicken IgG (Jackson ImmunoResearch) were diluted with TBS containing 3% normal horse serum and 0.25% Triton X-100 at 1:500, and used. After washing with TBS, the sections were observed using BZ-X710 (KEYENCE) to obtain fluorescent images. For the section of the central part of the spinal cord of the rat, the cavity area of the injured part, the area of the region immunostained with the GFAP antibody, and the number of cells immunostained with the NeuN antibody present on the lines 1.5 mm rostal and caudal from the center of the injury were measured. GFAP is a marker for reactive astrocytes and NeuN is a marker for neurons. Immediately after creating crush injuries in the fifth cervical cord (C5) of Lewis rats (female, 8 to 14 weeks old, n=8/group) under anesthesia in the same manner as in Example 4, 500 mg/kg of bismuth subnitrate dissolved in saline, or vehicle (saline) was intraperitoneally administered. After the rats were kept for 8 weeks from injury creation, histological evaluation and sensory function evaluation were performed for pathological conditions at the chronic stage of the spinal cord injury. In the same manner as in Example 4, for the section of the central part of the spinal cord of the rat, the reactive astrocyte area, the cavity area of the injured part, and the number of remaining neurons present on the lines 1.5 mm rostal and caudal from the center of the injury were measured.
# [2] = tested on: cerebral cortex injury mice; assay: IgG leakage in cerebral cortex injury model; assay type: in vivo, C57BL/6 mice; settings: i.p. day before and on day of injury; bismuth subnitrate 500, papaverine 20 mg/kg; vs vehicle; FIG. 16
# Description: Protection of the BBSCB function in traumatic brain injury by papaverine, mubritinib, brexpiprazole, and bismuth subnitrate was evaluated by observing suppression of IgG leakage from the injured site using the following method. C57BL/6 mice (male, 8 to 13 weeks old, n=3 to 4/group) were intraperitoneally administered 200 μL of the test compound dissolved in saline or DMSO, or vehicle. The doses were 20 mg/kg body weight of papaverine, 1 mg/kg body weight of mubritinib, 1 mg/kg body weight of brexpiprazole, and 500 mg/kg body weight of bismuth subnitrate. On the next day after administration, injuries were created in the left cerebral hemisphere cortex of the mice under anesthesia by a wire-knife transection method. The mice were immobilized in a stereotaxic frame, and the left lateral 1 mm portion from the bregma of the cranial bone was opened with a microdrill. A wire-knife was inserted into the lateral 1.0 mm from the bregma and 0.5 mm deep in the left cerebral hemisphere, and the wire was extended caudally and pulled up to create the injury. […] For evaluation of the IgG-stained area, taken images were binarized into black and white using Photoshop CS3 (Adobe, CA, USA), and then quantified using Image J (Schneider et al., 2012). […] All quantitative evaluations were performed with the slides blinded. […]
# [3] = tested on: Human brain vascular endothelial cells (hCMEC/D3); assay: Cell viability of human brain vascular endothelial cells under hydrogen peroxide stress; assay type: cell-based; settings: 450 μM hydrogen peroxide, 6 hours; PrestoBlue; stressed cells without test compound about 0.2; FIG. 17
# Description: Human brain vascular endothelial cells (hCMEC/D3, Sigma) were seeded to 5,000 cells/cm^2 on a 96-well plate (Falcon cell culture 96-well multi-well plate, with flat bottom lid) coated with 0.1 mg/ml collagen type 1 (Sigma-Aldrich), and cultured at 37° C. for 24 hours with 5% CO2 using Endothelial Cell Growth Medium (PromoCell, Germany). Bismuth citrate, bismuth subnitrate, bismuth tartrate, or zinc sulfate dissolved in saline, and hydrogen peroxide at a final concentration of 450 μM were added to the medium and incubated for 6 hours to simultaneously stress the cells and treat them with test compounds. The cell viability after loading stress was measured using PrestoBlue (registered trademark) Cell Viability Reagent (Life Technologies).
# The cell viability is illustrated in FIG. 17 when the cell viability of the control without hydrogen peroxide stress is 1 and the cell-free is 0. […] Note that the survival rate of the cells subjected to hydrogen peroxide stress and not added the test compound was about 0.2.
# [4] = tested on: spinal cord crush injury rats; assay: Walking function analysis (DigiGait) in spinal cord crush injury model; assay type: in vivo, Lewis rats; settings: single i.p. dose 500 mg/kg, 8 weeks after injury
# Description: Immediately after creating crush injuries in the fifth cervical cord (C5) of Lewis rats (female, 8 to 14 weeks old, n=8/group) under anesthesia in the same manner as in Example 4, 500 mg/kg of bismuth subnitrate dissolved in saline, or vehicle (saline) was intraperitoneally administered. After the rats were kept for 8 weeks from injury creation, histological evaluation and sensory function evaluation were performed for pathological conditions at the chronic stage of the spinal cord injury.
# The ground contacting area (the Paw Area) of each leg and the maximum possible walking speed were measured in rats before and 8 weeks after spinal cord injury creation using the DigiGait walking analysis system for small animals (Bioresearch Center Co., Ltd.) according to the manual. […] All rats before spinal cord injury creation were able to walk at a treadmill speed of 20 cm/sec. In the vehicle-administered group, the number of rats that were able to walk at a speed of 15 cm/sec or faster decreased to two individuals, whereas in the bismuth subnitrate-administered group, 6 individuals were able to walk at a speed of 15 cm/sec or faster (FIG. 15).
# [5] = tested on: spinal cord crush injury rats; assay: Sensory function evaluation (pain stimulus response time) in spinal cord crush injury model; assay type: in vivo, Lewis rats; settings: single i.p. dose 500 mg/kg immediately after C5 crush injury; vs vehicle; FIG. 13
# Description: Crush injuries were created in the fifth cervical cord (C5) of Lewis rats (female, 8 to 14 weeks old, n=14 to 18/group) under anesthesia by applying a pressure of 200 kdyn using an IH impactor. For seven consecutive days from the day of injury creation, 380 to 420 μL of the test compound dissolved in saline or DMSO, or vehicle was intraperitoneally administered. The daily doses were 20 mg/kg body weight of papaverine, 1 mg/kg body weight of mubritinib, and 1 mg/kg body weight of brexpiprazole. After the rats were kept for 8 weeks from injury creation, histological evaluation and sensory function evaluation for pathological conditions at the chronic stage of the spinal cord injury were performed. […] Immediately after creating crush injuries in the fifth cervical cord (C5) of Lewis rats (female, 8 to 14 weeks old, n=8/group) under anesthesia in the same manner as in Example 4, 500 mg/kg of bismuth subnitrate dissolved in saline, or vehicle (saline) was intraperitoneally administered. After the rats were kept for 8 weeks from injury creation, histological evaluation and sensory function evaluation were performed for pathological conditions at the chronic stage of the spinal cord injury.
# [6] = i.p. daily for 7 days from C5 crush injury, papaverine 20, mubritinib 1, brexpiprazole 1 mg/kg
Compound,"reactive astrocyte area (GFAP positive area) [1, 6]",leakage of IgG from the injured site of the cerebral cortex [2],cell protective effect on hCMEC/D3 (cell viability) compared with zinc sulfate [3],further results
"COc1ccc(Cc2nccc3cc(OC)c(OC)cc23)cc1OC [papaverine, 1-[(3,4-dimethoxyphenyl)methyl]-6,7-dimethoxyisoquinoline]",significantly reduced,significantly suppressed,,"cavity area of the injured part ([1]; i.p. daily for 7 days from C5 crush injury, papaverine 20, mubritinib 1, brexpiprazole 1 mg/kg, FIG. 7): significantly reduced; number of remaining neurons (NeuN-positive cells) ([1]; i.p. daily for 7 days from C5 crush injury, papaverine 20, mubritinib 1, brexpiprazole 1 mg/kg, FIG. 8): significantly increased"
O=[N+]([O-])[O-].O=[N+]([O-])[O-].O=[N+]([O-])[O-].O=[N+]([O-])[O-].[Bi+3].[Bi+3].[Bi+3].[Bi+3].[Bi+3].[O-2].[OH-].[OH-].[OH-].[OH-].[OH-].[OH-].[OH-].[OH-].[OH-] [bismuth subnitrate],,significantly suppressed,significantly higher,"cavity area of the injured part ([1]; single i.p. dose 500 mg/kg immediately after C5 crush injury, FIG. 11): significantly reduced; number of remaining neurons, rostral side and caudal side of the injured part ([1]; single i.p. dose 500 mg/kg immediately after C5 crush injury, FIG. 12): increased both on the rostral side and the caudal side; number of rats able to walk at a speed of 15 cm/sec or faster ([4]; n=8/group, vehicle group two individuals, FIG. 15): 6 individuals; ground contacting area (the Paw Area) on one side ([4]; vs vehicle, FIG. 14): significantly increased; response time of the forelimbs to pain stimulus [5]: significantly longer"
bismuth tartrate,,,significantly higher,
"O=c1ccc2ccc(OCCCCN3CCN(c4cccc5sccc45)CC3)cc2[nH]1 [brexpiprazole, 7-[4-[4-(1-benzothiophen-4-yl)piperazin-1-yl]butoxy]-1H-quinolin-2-one]",significantly reduced,,,
"O=C([O-])CC(O)(CC(=O)[O-])C(=O)[O-].O=C([O-])CC(O)(CC(=O)[O-])C(=O)[O-].[Bi+3].[K+].[K+].[K+] [Bismuth subcitrate, bismuth subcitrate]",,,significantly higher,
